From publication PMC10987949, “Inhibition of HIV-1 release by ADAM metalloproteinase inhibitors” (Frontiers in Microbiology, 2024)
“Also recorded” adds a separate entry of the source.

Assays:
[1] = tested on: CD62L shedding; test: Soluble CD62L ELISA, anti-CD3/PHA stimulated PBMC or CD4 T cells; format: cell-based, human; settings: for inhibition at 10 µM: Homo sapiens, 10 μM compound, stimulated cells; for inhibition at 10 µM / effect on CD62L shedding / soluble CD62L: ELISA; for effect on CD62L shedding / soluble CD62L: stimulated PBMC or CD4 T cells
How it was run: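 Healthy-donor PBMC stimulated with okt3 anti-CD3 (~0.2 μg/mL final) plus IL-2 (20 U/mL final) in presence of compound. Soluble CD62L in supernatants measured by ELISA; viability checked by AO/PI staining.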

[2] = tested on: CD62L shedding; test: Soluble CD62L ELISA, unstimulated PBMC; format: cell-based, human; settings: Homo sapiens, PBMC, read-out: Shedding inhibition Non-stim.
[3] = target: T1, recombinant ADAM10 (Homo sapiens, UniProt O14672); test: Kinetic cleavage of fluorogenic TNF-α peptide ES003 by recombinant ADAM10; format: biochemical; settings: for inhibition of ADAM10 cleavage of ES003: 2 μM compound; for Ki: ES003 substrate, 4-h time point, non-linear regression, read-out: Inhibition constant Ki ADAM10
T1 construct: purchased R&D systems, Inc
T1 sequence (O14672 214-748): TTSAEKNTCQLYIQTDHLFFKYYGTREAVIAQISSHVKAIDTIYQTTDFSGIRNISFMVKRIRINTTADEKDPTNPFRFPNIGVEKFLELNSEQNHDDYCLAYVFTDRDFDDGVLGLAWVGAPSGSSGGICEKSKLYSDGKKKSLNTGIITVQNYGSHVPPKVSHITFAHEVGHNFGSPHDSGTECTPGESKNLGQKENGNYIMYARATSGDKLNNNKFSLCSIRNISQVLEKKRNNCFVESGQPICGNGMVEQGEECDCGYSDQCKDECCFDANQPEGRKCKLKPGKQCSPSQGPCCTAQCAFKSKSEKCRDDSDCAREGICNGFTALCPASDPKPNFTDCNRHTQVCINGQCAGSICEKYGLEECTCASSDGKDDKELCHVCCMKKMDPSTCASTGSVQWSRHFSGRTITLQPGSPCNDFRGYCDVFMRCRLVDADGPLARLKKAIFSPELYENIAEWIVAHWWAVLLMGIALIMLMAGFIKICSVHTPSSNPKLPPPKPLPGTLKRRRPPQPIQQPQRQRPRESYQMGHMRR
Source text: A fluorescence based enzymatic assay was used to measure the cleavage of fluorogenic TNF-α and L-selectin (CD62L) peptides by either recombinant ADAMs or PBMC from healthy donors. The fluorogenic substrate, synthesized by Biomatik^3, was a Dabcyl (4-(4-dimethylaminophenylazo)benzoyl)- and Edans (5-[(2-aminoethyl)amino]naphthalene-1-sulfonic acid)- conjugated 12 amino acid peptide: Dabcyl-[…]-Edans that corresponds to the extracellular membrane proximal region of CD62L. […] The cleavage was measured in a kinetic assay every 3 min for 4 h in black 96-well plates using a Synergy_h1 fluorescent plate reader (BioTek) with 340 nm excitation and 490 nm emission wavelengths. […] PBMC were stimulated with anti-CD3 antibody for 2–4 days as described above.
96-well plate with data recorded every 3 minutes for 4 hours using a Synergy_h1 fluorescent plate reader. Each enzymatic reaction contained 50 -200 ng
Figure 2B and 2C bar diagrams are generated using the
data points at 4 hour time point of the enzymatic cleavages.

[4] = tested on: PBMC; test: PBMC viability (AO/PI staining); format: cell-based, human; settings: for PBMC viability at 24hr post treatment: 10-500 μM of MMP inhibitors for 24hours; for impact on cell viabilities in HIV-1BAL infection: PBMC post infection with HIV-1BAL
Protocol: PBMC from de-identified healthy donors were obtained with informed consent from the Department of Transfusion Medicine, National Institutes of Health under Biological reagent Registry RD-14-IX-12 approved by NIH biological safety board. CD8-depleted PBMCs, either stimulated or non-stimulated with 10 μg/mL phytohaemagglutinin (PHA) or anti-CD3 antibody (with or without conjugated beads), were plated at 2×10^6 cells/ml in 48 well plates in RPMI 1640 + 10%FBS (R10) to a final volume of 1 mL in each well. IL-2 was added at a final concentration of 20 U/mL. CD3 antibody okt3 was used at ~0.2 μg/mL final concentration. Compounds were prepared in appropriate solvents according to the manufacturer’s instructions, diluted to working concentrations using RPMI 1640 + 10%FBS (R10), and added to the cell cultures for 6–24 h for CD62L shedding, and 48 h for TNF-α release. Supernatants were collected and assessed using either the CD62L or TNF-α Duo Set ELISA kit according to manufacturer’s instructions (R&D Systems, Inc.). The viability of cells treated with compounds was assessed by acridine orange / propidiom iodide (AO/PI Logosbio catalog F23001) staining using Luna-FL cell counter following the manufacture’s instruction.^2

[5] = 10 μM compound, non-stimulated cells, ELISA

## CNC(=O)[C@H](Cc1ccccc1)NC(=O)[C@H](CC(C)C)[C@H](CSc1cccs1)C(=O)NO [BB-94, Batimastat]
[1]
  inhibition at 10 µM: > 50%
  effect on CD62L shedding / soluble CD62L: suppressed CD62L shedding; also recorded: inhibited
[1]; stimulated PBMC
  effect on 3,4-dichloroisocouman enhanced CD62L shedding: blocked
[2]
  inhibition at 10 µM: > 50%
[3]
  concentrations inhibiting ADAM10 enzymatic activity: 20 to 50 nM
  inhibition of ADAM10 cleavage of ES003: inhibited both ADAM10 and 17; also recorded: indistinguishable from that of ES003-only curve without the enzyme
[4]
  PBMC viability at 24hr post treatment: No significant decrease in the viability
  impact on cell viabilities in HIV-1BAL infection: without significant impact to cell viabilities

## CNC(=O)[C@@H](NC(=O)[C@H](CCCc1ccccc1)[C@H](C)N(O)C=O)C(C)(C)C [GI254023X]
[1]
  inhibition at 10 µM: > 50%
  effect on CD62L shedding / soluble CD62L: suppressed CD62L shedding
[2]; [5]
  inhibition at 10 µM: 20 to 50%
[3]
  inhibition of ADAM10 cleavage of ES003: preferentially inhibited the enzymatic activity of ADAM10 compared to ADAM17
  Ki: 11 ± 9 nM
[4]
  PBMC viability at 24hr post treatment: No significant decrease in the viability

## CC1(C)SCCN(S(=O)(=O)c2ccc(Oc3ccncc3)cc2)[C@H]1C(=O)NO [prinomastat]
[1]
  inhibition at 10 µM: > 50%
  effect on CD62L shedding / soluble CD62L: suppressed CD62L shedding
[2]; [5]
  inhibition at 10 µM: > 50%
[3]
  concentrations inhibiting ADAM10 enzymatic activity: 20 to 50 nM
  inhibition of ADAM10 cleavage of ES003: inhibited both ADAM10 and 17
  Ki: 2 ± 0.4 nM
[4]
  impact on cell viabilities in HIV-1BAL infection: without significant impact to cell viabilities
